What was measured:
[1] = molecular target: mouse IL-1β (Mus musculus, UniProt P10749); experiment: Cross-reactivity with mouse IL-1β; assay type: binding
From the text: A mouse surrogate anti-IL-1β antibody has been developed and is being used to evaluate the effects of blocking IL-1β in mouse models of cancer. This isotype of the surrogate antibody is IgG2a, which is closely related to human IgG1.

[2] = test system: incident cancers in post-myocardial infarction patients with hsCRP ≥2 mg/L; experiment: CANTOS trial: incident cancers, cancer mortality, canakinumab vs placebo; assay type: in vivo, human

Sequence of mouse IL-1β (P10749 118-269): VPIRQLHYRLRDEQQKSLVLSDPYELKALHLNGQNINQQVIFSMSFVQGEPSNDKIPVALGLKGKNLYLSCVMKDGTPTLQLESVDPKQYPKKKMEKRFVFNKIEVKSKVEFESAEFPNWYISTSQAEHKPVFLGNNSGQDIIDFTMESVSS

Q: Which results are given for “canakinumab: high-affinity, fully human monoclonal antibody of the IgG1/k to interleukin-1β; INN number 8836”?
A: cross-reactivity with mouse IL-1β [1]: does not cross-react; Breast, incidence rate (number) ([2]; 50 mg SC q 3 months): 0.09(7) per 100 person years; Central Nervous System, incidence rate (number) ([2]; 50 mg SC q 3 months): 0.04(3) per 100 person years; Endocrine: Adrenal, incidence rate (number) ([2]; 50 mg SC q 3 months): 0 per 100 person years; Endocrine: Thyroid, incidence rate (number) ([2]; 50 mg SC q 3 months): 0.01(1) per 100 person years; Gastrointenstinal: Appendiceal, incidence rate (number) ([2]; 50 mg SC q 3 months): 0 per 100 person years; Gastrointenstinal: Biliary, incidence rate (number) ([2]; 50 mg SC q 3 months): 0.03(2) per 100 person years; Gastrointenstinal: Colorectal, incidence rate (number) ([2]; 50 mg SC q 3 months): 0.25(20) per 100 person years; Gastrointenstinal: Esophageal, incidence rate (number) ([2]; 50 mg SC q 3 months): 0.08(6) per 100 person years; Gastrointenstinal: Gastric, incidence rate (number) ([2]; 50 mg SC q 3 months): 0.04(3) per 100 person years; Gastrointenstinal: Oral cavity/tongue, incidence rate (number) ([2]; 50 mg SC q 3 months): 0.03(2) per 100 person years; Gastrointenstinal: Pancreatic, incidence rate (number) ([2]; 50 mg SC q 3 months): 0.04(3) per 100 person years; Genitourinary: Bladder, incidence rate (number) ([2]; 50 mg SC q 3 months): 0.10(8) per 100 person years; Genitourinary: Cervical, incidence rate (number) ([2]; 50 mg SC q 3 months): 0 per 100 person years; Genitourinary: Endometrial/Uterine, incidence rate (number) ([2]; 50 mg SC q 3 months): 0.03(2) per 100 person years; Genitourinary: Ovarian, incidence rate (number) ([2]; 50 mg SC q 3 months): 0 per 100 person years; Genitourinary: Prostate, incidence rate (number) ([2]; 50 mg SC q 3 months): 0.19(15) per 100 person years; Genitourinary: Testicular, incidence rate (number) ([2]; 50 mg SC q 3 months): 0 per 100 person years; Hematopoetic: Leukemia, incidence rate (number) ([2]; 50 mg SC q 3 months): 0.01(1) per 100 person years; Hematopoetic: Lymphoma, incidence rate (number) ([2]; 50 mg SC q 3 months): 0.04(3) per 100 person years; Hematopoetic: Multiple myeloma, incidence rate (number) ([2]; 50 mg SC q 3 months): 0 per 100 person years; Kidney, incidence rate (number) ([2]; 50 mg SC q 3 months): 0.13(10) per 100 person years; Liver, incidence rate (number) ([2]; 50 mg SC q 3 months): 0.04(3) per 100 person years; Lung Cancers: Adenocarcinoma or poorly differentiated large cell carcinoma or unspecified, incidence rate (number) ([2]; 50 mg SC q 3 months): 0.33 per 100 person years; Lung Cancers: Pleural cancer, incidence rate (number) ([2]; 50 mg SC q 3 months): 0 per 100 person years; Lung Cancers: Small cell lung cancer, incidence rate (number) ([2]; 50 mg SC q 3 months): 0.01 (1) per 100 person years; Lung Cancers: Squamous cell lung carcinoma, incidence rate (number) ([2]; 50 mg SC q 3 months): 0.01 (1) per 100 person years; Other cancer sites: Other, incidence rate (number) ([2]; 50 mg SC q 3 months): 0.08(6) per 100 person years; Sarcoma / Bone, incidence rate (number) ([2]; 50 mg SC q 3 months): 0.01(1) per 100 person years; Skin: Basal cell carcinoma, incidence rate (number) ([2]; 50 mg SC q 3 months): 0.28(22) per 100 person years; Skin: Melanoma, incidence rate (number) ([2]; 50 mg SC q 3 months): 0.08(6) per 100 person years; Skin: Other, incidence rate (number) ([2]; 50 mg SC q 3 months): 0 per 100 person years; Skin: Squamous cell skin cancer, incidence rate (number) ([2]; 50 mg SC q 3 months): 0.10(8) per 100 person years; Lung Cancers: Adenocarcinoma or poorly differentiated large cell carcinoma or unspecified, incidence rate (number) ([2]; 50 mg SC q 3 months, listed as Canakinumab): 0.33 (26) per 100 person years; Breast, incidence rate (number) ([2]; 150 mg SC q 3 months): 0.05(4) per 100 person years; Central Nervous System, incidence rate (number) ([2]; 150 mg SC q 3 months): 0.05(4) per 100 person years; Endocrine: Adrenal, incidence rate (number) ([2]; 150 mg SC q 3 months): 0.01(1) per 100 person years; Endocrine: Thyroid, incidence rate (number) ([2]; 150 mg SC q 3 months): 0.02(2) per 100 person years; Gastrointenstinal: Appendiceal, incidence rate (number) ([2]; 150 mg SC q 3 months): 0 per 100 person years; Gastrointenstinal: Biliary, incidence rate (number) ([2]; 150 mg SC q 3 months): 0.03(3) per 100 person years; Gastrointenstinal: Colorectal, incidence rate (number) ([2]; 150 mg SC q 3 months): 0.19(16) per 100 person years; Gastrointenstinal: Esophageal, incidence rate (number) ([2]; 150 mg SC q 3 months): 0.03(3) per 100 person years; Gastrointenstinal: Gastric, incidence rate (number) ([2]; 150 mg SC q 3 months): 0.02(2) per 100 person years; Gastrointenstinal: Oral cavity/tongue, incidence rate (number) ([2]; 150 mg SC q 3 months): 0.05(4) per 100 person years; Gastrointenstinal: Pancreatic, incidence rate (number) ([2]; 150 mg SC q 3 months): 0.06(5) per 100 person years; Genitourinary: Bladder, incidence rate (number) ([2]; 150 mg SC q 3 months): 0.08(7) per 100 person years; Genitourinary: Cervical, incidence rate (number) ([2]; 150 mg SC q 3 months): 0.01(1) per 100 person years; Genitourinary: Endometrial/Uterine, incidence rate (number) ([2]; 150 mg SC q 3 months): 0 per 100 person years; Genitourinary: Ovarian, incidence rate (number) ([2]; 150 mg SC q 3 months): 0.01(1) per 100 person years; Genitourinary: Prostate, incidence rate (number) ([2]; 150 mg SC q 3 months): 0.16(14) per 100 person years; Genitourinary: Testicular, incidence rate (number) ([2]; 150 mg SC q 3 months): 0.01(1) per 100 person years; Hematopoetic: Leukemia, incidence rate (number) ([2]; 150 mg SC q 3 months): 0.02(2) per 100 person years; Hematopoetic: Lymphoma, incidence rate (number) ([2]; 150 mg SC q 3 months): 0.05(4) per 100 person years; Hematopoetic: Multiple myeloma, incidence rate (number) ([2]; 150 mg SC q 3 months): 0 per 100 person years; Kidney, incidence rate (number) ([2]; 150 mg SC q 3 months): 0.07(6) per 100 person years; Liver, incidence rate (number) ([2]; 150 mg SC q 3 months): 0.06(5) per 100 person years; Lung Cancers: Adenocarcinoma or poorly differentiated large cell carcinoma or unspecified, incidence rate (number) ([2]; 150 mg SC q 3 months): 0.27 per 100 person years; Lung Cancers: Pleural cancer, incidence rate (number) ([2]; 150 mg SC q 3 months): 0 per 100 person years; Lung Cancers: Small cell lung cancer, incidence rate (number) ([2]; 150 mg SC q 3 months): 0.01 (1) per 100 person years; Lung Cancers: Squamous cell lung carcinoma, incidence rate (number) ([2]; 150 mg SC q 3 months): 0.02 (2) per 100 person years; Other cancer sites: Other, incidence rate (number) ([2]; 150 mg SC q 3 months): 0.06(5) per 100 person years; Sarcoma / Bone, incidence rate (number) ([2]; 150 mg SC q 3 months): 0 per 100 person years; Skin: Basal cell carcinoma, incidence rate (number) ([2]; 150 mg SC q 3 months): 0.29(25) per 100 person years; Skin: Melanoma, incidence rate (number) ([2]; 150 mg SC q 3 months): 0.06(5) per 100 person years; Skin: Other, incidence rate (number) ([2]; 150 mg SC q 3 months): 0.06(5) per 100 person years; Skin: Squamous cell skin cancer, incidence rate (number) ([2]; 150 mg SC q 3 months): 0.15(13) per 100 person years; Lung Cancers: Adenocarcinoma or poorly differentiated large cell carcinoma or unspecified, incidence rate (number) ([2]; 150 mg SC q 3 months, listed as Canakinumab): 0.27 (23) per 100 person years; Breast, incidence rate (number) ([2]; 300 mg SC q 3 months): 0.06(5) per 100 person years; Central Nervous System, incidence rate (number) ([2]; 300 mg SC q 3 months): 0.03(3) per 100 person years; Endocrine: Adrenal, incidence rate (number) ([2]; 300 mg SC q 3 months): 0.01(1) per 100 person years; Endocrine: Thyroid, incidence rate (number) ([2]; 300 mg SC q 3 months): 0.01(1) per 100 person years; Gastrointenstinal: Appendiceal, incidence rate (number) ([2]; 300 mg SC q 3 months): 0.01(1) per 100 person years; Gastrointenstinal: Biliary, incidence rate (number) ([2]; 300 mg SC q 3 months): 0 per 100 person years; Gastrointenstinal: Colorectal, incidence rate (number) ([2]; 300 mg SC q 3 months): 0.21(18) per 100 person years; Gastrointenstinal: Esophageal, incidence rate (number) ([2]; 300 mg SC q 3 months): 0.08(7) per 100 person years; Gastrointenstinal: Gastric, incidence rate (number) ([2]; 300 mg SC q 3 months): 0.06(5) per 100 person years; Gastrointenstinal: Oral cavity/tongue, incidence rate (number) ([2]; 300 mg SC q 3 months): 0.02(2) per 100 person years; Gastrointenstinal: Pancreatic, incidence rate (number) ([2]; 300 mg SC q 3 months): 0.06(5) per 100 person years; Genitourinary: Bladder, incidence rate (number) ([2]; 300 mg SC q 3 months): 0.13(11) per 100 person years; Genitourinary: Cervical, incidence rate (number) ([2]; 300 mg SC q 3 months): 0 per 100 person years; Genitourinary: Endometrial/Uterine, incidence rate (number) ([2]; 300 mg SC q 3 months): 0.03(3) per 100 person years
